According to patent publication US7674801B2 (AstraZeneca AB, priority 2006, dated 2010):

Target: S. aureus (SAU) GyrB ATPase (Staphylococcus aureus, UniProt P0A0K8)
Experiment: S. aureus GyrB ATPase inhibition, ammonium molybdate/malachite green phosphate detection assay
Format: biochemical
Details: compound concentration 5 μM (values marked *)
Experimental: Compounds were tested for inhibition of GyrB ATPase activity using an ammonium molybdate/malachite green-based phosphate detection assay (Lanzetta, P. A., L. J. Alvarez, P. S. Reinach, and O. A. Candia, 1979, 100: 95-97). Assays were performed in multiwell plates in 100 μl reactions containing: 50 mM Hepes buffer pH 7.5, 75 mM ammonium acetate, 8.0 mM magnesium chloride, 1.0 mM ethylenediaminetetraacetic acid, 5% glycerol, 2 mM 1,4-Dithio-DL-threitol, 400 nM bovine serum albumin, 5 μg/ml sheared salmon sperm DNA, 1.25 nM E. coli GyrA, 1.25 nM S. aureus GyrB, 500 μM ATP, and compound in dimethylsulfoxide. Reactions were quenched with 150 μl of ammonium molybdate/malachite green detection reagent containing 1.2 mM malachite green hydrochloride, 8.5 mM ammonium molybdate tetrahydrate, and 1 M hydrochloric acid. Plates were read in an absorbance plate reader at 650 nm and percent inhibition values were calculated using dimethylsulfoxide (2%)-containing reactions as 0% inhibition and novobiocin-containing (2 μM) reactions as 100% inhibition controls. Compound potency was based on IC50 measurements determined from reactions performed in the presence of 10 different compound concentrations.

Chain of S. aureus (SAU) GyrB ATPase (P0A0K8 whole entry): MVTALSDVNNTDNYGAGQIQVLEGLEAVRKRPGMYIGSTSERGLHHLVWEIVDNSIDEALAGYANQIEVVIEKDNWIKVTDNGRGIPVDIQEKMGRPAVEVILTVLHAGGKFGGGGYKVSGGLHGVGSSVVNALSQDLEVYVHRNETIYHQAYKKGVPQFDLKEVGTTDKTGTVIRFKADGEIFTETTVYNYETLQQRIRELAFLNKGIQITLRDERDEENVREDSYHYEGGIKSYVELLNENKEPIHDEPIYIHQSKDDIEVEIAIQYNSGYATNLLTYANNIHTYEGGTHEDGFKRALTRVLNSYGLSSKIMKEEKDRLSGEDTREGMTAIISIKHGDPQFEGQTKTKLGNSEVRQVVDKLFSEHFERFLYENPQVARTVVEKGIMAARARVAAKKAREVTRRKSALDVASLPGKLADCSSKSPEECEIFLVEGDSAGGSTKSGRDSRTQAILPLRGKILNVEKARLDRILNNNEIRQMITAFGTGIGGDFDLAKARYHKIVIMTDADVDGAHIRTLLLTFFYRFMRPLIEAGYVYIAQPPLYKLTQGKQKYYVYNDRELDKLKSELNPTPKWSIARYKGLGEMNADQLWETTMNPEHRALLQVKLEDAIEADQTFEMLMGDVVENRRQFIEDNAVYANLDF
Chain of S. aureus (SAU) GyrB ATPase (P0AES4 whole entry, further chain): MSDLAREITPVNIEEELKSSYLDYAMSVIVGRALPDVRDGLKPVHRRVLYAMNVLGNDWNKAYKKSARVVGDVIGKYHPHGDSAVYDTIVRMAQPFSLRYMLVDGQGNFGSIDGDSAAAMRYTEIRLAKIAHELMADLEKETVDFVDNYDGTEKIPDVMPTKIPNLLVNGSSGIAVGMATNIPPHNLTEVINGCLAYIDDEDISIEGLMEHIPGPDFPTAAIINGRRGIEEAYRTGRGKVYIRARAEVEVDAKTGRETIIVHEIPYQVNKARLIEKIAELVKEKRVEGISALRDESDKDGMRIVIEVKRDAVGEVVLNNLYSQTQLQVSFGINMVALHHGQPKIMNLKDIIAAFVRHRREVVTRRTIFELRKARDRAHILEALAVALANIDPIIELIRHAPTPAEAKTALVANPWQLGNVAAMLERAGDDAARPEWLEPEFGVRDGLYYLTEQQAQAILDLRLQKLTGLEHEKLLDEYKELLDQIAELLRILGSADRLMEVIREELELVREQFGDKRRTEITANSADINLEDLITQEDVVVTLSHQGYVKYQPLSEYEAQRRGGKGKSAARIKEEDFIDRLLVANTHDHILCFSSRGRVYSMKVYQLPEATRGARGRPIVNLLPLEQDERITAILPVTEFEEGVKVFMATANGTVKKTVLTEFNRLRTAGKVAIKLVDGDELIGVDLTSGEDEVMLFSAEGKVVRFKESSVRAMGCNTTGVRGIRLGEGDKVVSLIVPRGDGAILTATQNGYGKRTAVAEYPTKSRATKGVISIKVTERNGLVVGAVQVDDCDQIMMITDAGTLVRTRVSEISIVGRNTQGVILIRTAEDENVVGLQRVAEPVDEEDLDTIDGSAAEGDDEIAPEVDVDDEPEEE

| SMILES | inhibition at 5 µM [%] |
| --- | --- |
| CCNC(=O)Nc1ccc(-c2ncc(C(=O)NOC)s2)cn1 [Example 34, 2-(6-{[(Ethylamino)carbonyl]amino}pyridin-3-yl)-N-methoxy-1,3-thiazole-5-carboxamide] | 42.5 |
| CCNC(=O)Nc1ccc(-c2nc(C(=O)NC3CC3)c(C(=O)NOC)s2)cn1 [Example 35, N^4-Cyclopropyl-2-(6-{[(ethylamino)carbonyl]amino}pyridin-3-yl)-N^5-methoxy-1,3-thiazole-4,5-dicarboxamide] | 96.7 |

Same assay, conditions: compound concentration 12.5 μM; 12.5 µM

| SMILES | S. aureus (SAU) GyrB ATPase % Inhibition [%] |
| --- | --- |
| CCNC(=O)Nc1ccc(-c2nc(-c3ncnn3C)c(C(=O)O)s2)cn1 [Example 147, 2-(6-{[(ethylamino)carbonyl]amino}pyridin-3-yl)-4-(1-methyl-1H-1,2,4-triazol-5-yl)-1,3-thiazole-5-carboxylic acid] | 94.65 |

Same assay, conditions: read-out: S. aureus (SAU) GyrB ATPase % Inhibition, compound concentration 12.5 μM

| SMILES | inhibition at 12.5 µM [%] |
| --- | --- |
| CCNC(=O)Nc1nc(-c2cccc(C(=O)O)c2)cs1 [Example 142, 3-(2-{[(ethylamino)carbonyl]amino}-1,3-thiazol-4-yl)benzoic acid] | 0.68 |
| CCNC(=O)Nc1cc(-c2cccnc2)c(-c2cncc(C(=O)O)c2)cn1 [Example 103, 6′-{[(Ethylamino)carbonyl]amino}-3,3′:4′,3″-terpyridine-5-carboxylic acid] | 96 |
| CCNC(=O)Nc1cc(-c2nc(C(F)(F)F)cs2)c(-c2cncc(C(=O)NC(C)(C)C)c2)cn1 [Example 123, N-(tert-Butyl)-6′-{[(ethylamino)carbonyl]amino}-4′-[4-(trifluoromethyl)-1,3-thiazol-2-yl]-3,3′-bipyridine-5-carboxamide] | 96.2 |
| CCNC(=O)Nc1cc(-c2nc(C(F)(F)F)cs2)c(-c2cncc(C(=O)NC3CCCC3)c2)cn1 [Example 125, N-Cyclopentyl-6′-{[(ethylamino)carbonyl]amino}-4′-[4-(trifluoromethyl)-1,3-thiazol-2-yl]-3,3′-bipyridine-5-carboxamide] | 107 |
| CCNC(=O)Nc1ccc(-c2nc(C(C)=O)c(C(=O)O)s2)cn1 [Example 27, 4-Acetyl-2-(6-{[(ethylamino)carbonyl]amino}pyridin-3-yl)-1,3-thiazole-5-carboxylic acid] | 99.1 |
| CCNC(=O)Nc1ccc(-c2nc(-c3nccn3C)c(C(=O)OC)s2)cn1 [Example 75, Methyl 2-(6-{[(ethylamino)carbonyl]amino}pyridin-3-yl)-4-(1-methyl-1H-imidazol-2-yl)-1,3-thiazole-5-carboxylate] | 93.5 |
| CCNC(=O)Nc1cc(-c2nc(C(F)(F)F)cs2)c(-c2cncc(C(N)=O)c2)cn1 [Example 121, 6′-{[(Ethylamino)carbonyl]amino}-4′-[4-(trifluoromethyl)-1,3-thiazol-2-yl]-3,3′-bipyridine-5-carboxamide] | 81.8 |
| CCC(C)NC(=O)Nc1cc(-c2nc(C(F)(F)F)cs2)c(-c2cncc(C(=O)NC)c2)cn1 (stereo not shown) [Example 130, 6′-{[(Sec-butylamino)carbonyl]amino}-N-methyl-4′-[4-(trifluoromethyl)-1,3-thiazol-2-yl]-3,3′-bipyridine-5-carboxamide] | 98.7 |
| CCNC(=O)Nc1nc(-c2ccc(C(=O)OC)cc2)cs1 [Example 41, Methyl 4-(2-{[(ethylamino)carbonyl]amino}-1,3-thiazol-4-yl)benzoate] | 26.9 |
| CCCNC(=O)c1nc(-c2ccc(NC(=O)NCC)nc2)sc1C(=O)N(C)C [Example 64, 2-[6-(3-ethyl-ureido)-pyridin-3-yl]-thiazole-4,5-dicarboxylic acid 5-dimethylamide 4-propylamide] | 92.6 |
| CCNC(=O)Nc1ccc(-c2nc(C(=O)N[C@@H](C)COC)c(C(=O)N(C)C)s2)cn1 [Example 118, 2-(6-{[(Ethylamino)carbonyl]amino}pyridin-3-yl)-N^4-[(1S)-2-methoxy-1-methylethyl]-N^5,N^5-dimethyl-1,3-thiazole-4,5-dicarboxamide] | 102 |
| CCNC(=O)Nc1ccc(-c2nc(C(=O)NC)c(C(=O)O)s2)cn1 [Example 24, 2-(6-{[(Ethylamino)carbonyl]amino}pyridin-3-yl)-4-[(methylamino)carbonyl]-1,3-thiazole-5-carboxylic acid] | 99.1 |
| CCNC(=O)Nc1cc(-c2cccc(C(=O)OCC)c2)ccn1 [Example 137, ethyl 3-(2-{[(ethylamino)carbonyl]amino}pyridin-4-yl)benzoate] | 86.9 |
| CCNC(=O)Nc1ccc(-c2nc(C(=O)NC3CC3)c(C(=O)O)s2)cn1 [Example 25, 4-[(Cyclopropylamino)carbonyl]-2-(6-{[(ethylamino)carbonyl]amino}pyridin-3-yl)-1,3-thiazole-5-carboxylic acid] | 99.5 |
| CCNC(=O)Nc1ccc(-c2nc(-c3ncnn3C)c(C(=O)N(C)C)s2)cn1 [Example 113, 2-(6-{[(Ethylamino)carbonyl]amino}pyridin-3-yl)-N,N-dimethyl-4-(1-methyl-1H-1,2,4-triazol-5-yl)-1,3-thiazole-5-carboxamide] | 102 |
| CCNC(=O)Nc1ncc(-c2nc3cccc(C(=O)OCC)c3s2)cn1 [Example 135, ethyl 2-(2-{[(ethylamino)carbonyl]amino}pyrimidin-5-yl)-1,3-benzothiazole-7-carboxylate] | 0.52 |

| SMILES | inhibition at 12.5 µM [%] |
| --- | --- |
| CCNC(=O)Nc1ccc(-c2nc(C(=O)N(C)C)c(C(=O)NC(C)(C)C)s2)cn1 [Example 159, N^5-(tert-butyl)-2-(6-{[(ethylamino)carbonyl]amino}pyridin-3-yl)-N^4,N^4-dimethyl-1,3-thiazole-4,5-dicarboxamide] | 95.3 |
| CCNC(=O)Nc1ccc(-c2cccc(C(=O)O)c2)cn1 [Example 22, 3-(6-{[(Ethylamino)carbonyl]amino}pyridin-3-yl)benzoic acid] | 99.7 |
| CCNC(=O)Nc1ccc(-c2nc(C(=O)N(C)C)c(C(=O)NC(C)C)s2)cn1 [Example 56, 2-[6-(3-Ethyl-ureido)-pyridin-3-yl]-thiazole-4,5-dicarboxylic acid 4-dimethylamide 5-isopropylamide] | 84.1 |
| CCCCNC(=O)c1sc(-c2ccc(NC(=O)NCC)nc2)nc1C(=O)N(C)C [Example 158, N^5-butyl-2-(6-{[(ethylamino)carbonyl]amino}pyridin-3-yl)-N^4,N^4-dimethyl-1,3-thiazole-4,5-dicarboxamide] | 92.6 |
| CCCCNC(=O)c1nc(-c2cnc(NC(=O)NCC)cc2-c2nc(CC)cs2)sc1C(=O)O [Example 150, 4-[(butylamino)carbonyl]-2-[6-{[(ethylamino)carbonyl]amino}-4-(4-ethyl-1,3-thiazol-2-yl)pyridin-3-yl]-1,3-thiazole-5-carboxylic acid] | 100 |
| CCNC(=O)Nc1ccc(-c2c[nH]c(=O)c(C(=O)O)c2)cn1 [Example 51, 5-(6-(3-ELthylureido)pyridin-3-yl)-2-oxo-1,2-dihydropyridine-3-carboxylic acid] | 62.1 |
| CCCCNC(=O)c1nc(-c2ccc(NC(=O)NCC)nc2)sc1C(=O)NC [Example 108, N^4-Butyl-2-(6-{[(ethylamino)carbonyl]amino}pyridin-3-yl)-N^5-methyl-1,3-thiazole-4,5-dicarboxamide] | 100 |
| CCNC(=O)Nc1cc(-c2nc(C(C)(C)C)cs2)c(-c2cncc(C(=O)O)c2)cn1 [Example 145, 4′-(4-tert-butyl-1,3-thiazol-2-yl)-6′-{[(ethylamino)carbonyl]amino}-3,3′-bipyridine-5-carboxylic acid] | 101 |
| CCNC(=O)Nc1cc(-c2nc(C(F)(F)F)cs2)c(-c2cncc(C(=O)NC)c2)cn1 [Example 122, 6′-{[(Ethylamino)carbonyl]amino}-N-methyl-4′-[4-(trifluoromethyl)-1,3-thiazol-2-yl]-3,3′-bipyridine-5-carboxamide] | 85.8 |
| CCNC(=O)Nc1cc(-c2nc(C(F)(F)F)cs2)c(-c2cncc(C(=O)O)c2)cn1 [Example 101, 6′-{[(Ethylamino)carbonyl]amino}-4′-[4-(trifluoromethyl)-1,3-thiazol-2-yl]-3,3′-bipyridine-5-carboxylic acid] | 98.3 |
| CCNC(=O)Nc1cc(-c2ccc(F)nc2)c(-c2cncc(C(=O)OCC)c2)cn1 [Example 86, Ethyl 6′-{[(ethylamino)carbonyl]amino}-6″-fluoro-3,3′:4′,3″-terpyridine-5-carboxylate] | 99.9 |
| CCNC(=O)Nc1ccc(-c2nc(C(=O)N(C)C)c(C(=O)N(C)C)s2)cn1 [Example 57, 2-[6-(3-Ethyl-ureido)-pyridin-3-yl]-thiazole-4,5-dicarboxylic acid bis-dimethylamide] | 80.1 |
| CCNC(=O)Nc1ccc(-c2ccc3nc(C)c(C(=O)OCC)n3c2)cn1 [Example 139, ethyl 6-(6-{[(ethylamino)carbonyl]amino}pyridin-3-yl)-2-methylimidazo[1,2-a]pyridine-3-carboxylate] | 96.7 |
| CCNC(=O)Nc1ncc(-c2ncc(C(=O)O)s2)cn1 [Example 30, 2-(2-{[(Ethylamino)carbonyl]amino}pyrimidin-5-yl)-1,3-thiazole-5-carboxylic acid] | 62.9 |
| CCNC(=O)Nc1ccc(-c2nc3cccc(C(N)=O)c3s2)cn1 [Example 40, 2-(6-{[(Ethylamino)carbonyl]amino}pyridin-3-yl)-1,3-benzothiazole-7-carboxamide] | 83.7 |
